“Also recorded” adds a separate entry of the source.
Molecular target: T1, PTP1B catalytic domain (residues 1-321) (Homo sapiens, UniProt P18031)
T1 construct: crystallisation of the catalytic domain of PTP1B (residues 1-321) were based on literature conditions; made in house; host or cells: E. coli BL21(DE3), vector pET19b
T1 sequence (P18031 1-321): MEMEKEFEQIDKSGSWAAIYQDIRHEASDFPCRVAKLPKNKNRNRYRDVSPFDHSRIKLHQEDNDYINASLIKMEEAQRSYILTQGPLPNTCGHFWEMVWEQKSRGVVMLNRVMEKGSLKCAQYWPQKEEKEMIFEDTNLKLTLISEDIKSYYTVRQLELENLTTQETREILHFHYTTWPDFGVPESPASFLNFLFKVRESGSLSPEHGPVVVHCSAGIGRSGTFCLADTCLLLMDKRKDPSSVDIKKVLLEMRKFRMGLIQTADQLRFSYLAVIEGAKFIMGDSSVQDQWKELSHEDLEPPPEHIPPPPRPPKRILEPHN
Test: Crystal soaking of PTP1B crystals with X-ray structure determination (oxidation state of Cys215)
Details: for State of the catalytic Cys215 / active site of PTP1B in the crystal after soaking (X-ray data): crystals soaked about 24 hours in mother liquor without DTT containing 100 mM compound
Protocol: For overnight soaking experiments crystals were transferred into a standard mother liquor containing 16% PEG 4000, 0.1 M HEPES (pH 7.5), 0.2 M magnesium acetate, 10 mM DTT and the compound of interest (See Table 3 below).
All data were collected at 100 K. Data sets of sulfenic- sulfinic- and sulfonic acid PTP1B derivatives were automatically collected on a Jupiter140 CCD detector mounted on a RU3HR rotating anode generator equipped with an ACTOR sample-changing robot (RigakuMSC, The Woodlands Tex., USA). They were processed and scaled using D*TREK^21 and converted to structure factors using programs from the CCP4 suite^22.
Oxidation of Cys215 to the sulfenyl-amide derivative was carried out by soaking crystals for approximately 24 hours in mother liquor without DTT, but containing 100 mM 2-phenyl-isoxazolidine-3,5-dione. Data were collected at station 14.1 (SRS, Daresbury) and processed and scaled using MOSFLM/SCALA^22.
Reversibility of the sulfenyl-amide derivative was checked by first soaking two crystals in 100 mM 2-phenyl-isoxazolidine-3,5-dione for 24 hours.
All results were evaluated using the graphics programs QUANTA (Accelrys, San Diego Calif., USA) and Astexviewer™^23. Initial refinement was always carried out using the CCP4-based Astex automatic refinement scripts, followed by rounds of positional and B-factor refinement with REFMAC5^22 alternated with manual rebuilding steps using QUANTA.

Compound	State of the catalytic Cys215 / active site of PTP1B in the crystal after soaking (X-ray data)	State of the catalytic Cys215 / active site of PTP1B in the crystal after soaking (X-ray data) (listed as 2-Phenyl-isoxazolidine-3,5-dione)	Active site conformation of sulfenyl-amide PTP1B crystal after back soaking (reversibility, X-ray data) (back soaking 24 hours in mother liquor containing 20 mM reduced glutathione, after a 100 mM 2-phenyl-isoxazolidine-3,5-dione soak)
O=C1CC(=O)N(c2ccccc2)O1 [2-phenyl-isoxazolidine-3,5-dione]	Sulfenyl-amide formation was confirmed	confirmed the formation of the sulfenyl-amide bond	
N[C@@H](CCC(=O)N[C@@H](CS)C(=O)NCC(=O)O)C(=O)O [reduced glutathione, glutathione]			entire active site back in its native conformation; also recorded: confirmed the active site in its native conformation
